Data as given in ChEMBL document CHEMBL1914290, “3,4-Disubstituted oxazolidin-2-ones as constrained ceramide analogs with anticancer activities” (Bioorg Med Chem, 2011).
The source made the active and inactive calls. The rule behind the calls is not given here.

Legend:
HL-60 [1] = assay: Antileukemic activity against human HL60 cells at 20 uM after 16 hrs by MTT assay; format: functional, cell-based
HL-60 [2] = assay: Induction of apoptosis in human HL60 cells assessed as DNA fragmentation at 20 uM after 15 hrs; format: functional, cell-based

Compound | Activity (HL-60 [1]) | Activity (HL-60 [2])
CCCCCCCCCCCCC/C=C/[C@@H](O)[C@@H]1COC(=O)N1C(=O)C1CCCC1 | Active | Active
CCCCCCCCCCCCC/C=C/[C@@H](O)[C@@H]1COC(=O)N1C(C)=O | Active | Active
CCCCCCCCCCCCC/C=C/[C@@H](O)[C@@H]1COC(=O)N1C(=O)C/C=C/c1ccccc1 | inactive | –
O=C1OC[C@@H]([C@H](O)/C=C/C2CCCCC2)N1C(=O)C1CCCC1 | inactive | –
CCCCCCCCCC/C=C/[C@@H](O)[C@@H]1COC(=O)N1C(=O)C1CCCC1 | Active | –
CCCCCC/C=C/[C@@H](O)[C@@H]1COC(=O)N1C(=O)C1CCCC1 | inactive | –
CCCCCCCCCCCCC/C=C/[C@@H](O)[C@@H]1COC(=O)N1C(=O)CCCCCCCCCCCCCCC | inactive | Active
CCCCCCCCCCCCC/C=C/[C@@H](O)[C@@H]1COC(=O)N1C(=O)c1cccc2ccccc12 | Active | –
CCCCCCCCCCCCC/C=C/[C@@H](O)[C@@H]1COC(=O)N1C(=O)CC | Active | Active
CCCCCCCCCCCCC/C=C/[C@@H](O)[C@@H]1COC(=O)N1C(=O)c1ccc([N+](=O)[O-])cc1 | Active | Active
CCCCCCCCCCCCC/C=C/[C@@H](O)[C@@H]1COC(=O)N1C(=O)c1ccccc1 | Active | Active
CCCCCCCCCCCCC/C=C/[C@@H](O)[C@@H]1COC(=O)N1C(=O)C(C)(C)C | Active | –
O=C1OC[C@@H]([C@H](O)/C=C/Cc2ccccc2)N1C(=O)C1CCCC1 | inactive | –
CCCC/C=C/[C@@H](O)[C@@H]1COC(=O)N1C(=O)C1CCCC1 | inactive | –
CCCCCCCCCCCCC/C=C/[C@@H](O)[C@@H]1COC(=O)N1C(=O)Cc1ccccc1 | inactive | –
CCCCCCCCCCCCC/C=C/[C@@H](O)[C@@H]1COC(=O)N1C(=O)C(C)C | Active | Active
CCCCCCCCCCCCC/C=C/[C@@H](O)[C@@H]1COC(=O)N1C(=O)c1ccccc1OC | Active | –
CCCCCCCCCCCCC/C=C/[C@@H](O)[C@@H]1COC(=O)N1C(=O)c1ccco1 | Active | –
CCCCCCCC/C=C/[C@@H](O)[C@@H]1COC(=O)N1C(=O)C1CCCC1 | inactive | –
O=C1OC[C@@H]([C@H](O)/C=C/C2CCCC2)N1C(=O)C1CCCC1 | inactive | –
